Data published in article PMC9865890, “N-Derivatives of (Z)-Methyl 3-(4-Oxo-2-thioxothiazolidin-5-ylidene)methyl)-1H-indole-2-carboxylates as Antimicrobial Agents—In Silico and In Vitro Evaluation” (Pharmaceuticals, 2023).
Values after ≈ are worked out from the molar mass of the structure shown. Like-named read-outs stand apart in the source and are kept apart here. Values belong to the compound of their own block, whether it stands above or below them.

Assays:
Type in all cases: cell-based
[1] = test system: Bacillus cereus (clinical isolate); experiment: Antibacterial microdilution (MIC/MBC); details: Bacillus cereus, B.c. (B. cereus); for MIC: read-out: MIC
Protocol: (§1) The synthesized compounds (Table 1) were evaluated for their antibacterial activity against a panel of eight species using a microdilution method with ampicillin and streptomycin as reference drugs. […] The order of activity can be presented as: 8 > 11 > 2 > 1 > 12 > 3 > 17 > 7 > 5 > 13 > 14 > 16 > 9 > 4 = 6 > 15 > 10. […] Cloacae. […] The most sensitive bacteria appeared to be En. cloacae, while E. coli was the most resistant one, followed by M. flavus.
(§2) The following Gram-negative bacteria: Escherichia coli (ATCC 35210), Enterobacter cloacae (clinical isolate), Salmonella typhimurium (ATCC 13311), as well as Gram-positive bacteria: Listeria monocytogenes (NCTC 7973), Bacillus cereus (clinical isolate), and Staphylococcus aureus (ATCC 6538) were used. The organisms were obtained from the Mycological Laboratory, Department of Plant Physiology, Institute for Biological Research “Siniša Stankovic”, Belgrade, Serbia. The minimum inhibitory (MIC) and minimum bactericidal (MBC) concentrations were determined by the modified microdilution method, as previously reported.

[2] = test system: Enterobacter cloacae (clinical isolate); experiment: Antibacterial microdilution (MIC/MBC); details: En.cl (En. cloacae)
Protocol: as §1, §2

[3] = test system: Escherichia coli (ATCC 35210); experiment: Antibacterial microdilution (MIC/MBC); details: Escherichia coli, ATCC35210, E. coli; for MIC: read-out: MIC
Protocol: as §1, §2

[4] = test system: Listeria monocytogenes (NCTC 7973); experiment: Antibacterial microdilution (MIC/MBC); details: L.m. (L. monocytogenes)
Protocol: as §1, §2

M. flavus = experiment: Antibacterial microdilution (MIC/MBC); details: Micrococcus flavus; M.f. (M. flavus)
Protocol: as §1, §2

P. aeruginosa = experiment: Antibacterial microdilution (MIC/MBC); details: Pseudomonas aeruginosa, P.a. (P. aeruginosa); for MIC: read-out: MIC
Protocol: as §1, §2

[5] = test system: Salmonella typhimurium (ATCC 13311); experiment: Antibacterial microdilution (MIC/MBC); details: S.t. (S. typhimurium)
Protocol: as §1, §2

[6] = test system: Staphylococcus aureus (ATCC 6538); experiment: Antibacterial microdilution (MIC/MBC); details: S.a. (S. aureus)
Protocol: as §1, §2

A. ochraceus = experiment: Antifungal bioassay (MIC/MFC); details: Aspergillus ochraceus, A.o. (A. ochraceus); for MIC: read-out: MIC
Protocol: (§3) For the antifungal bioassays, six fungi were used: […] The organisms were obtained from the Mycological Laboratory, Department of Plant Physiology, Institute for Biological Research “Siniša Stankovic”, Belgrade, Serbia. All experiments were performed in duplicate.

[7] = test system: Aspergillus fumigatus (ATCC 1022); experiment: Antifungal bioassay (MIC/MFC); details: ATCC1022, A.f. (A. fumigatus)
Protocol: as §3

[8] = test system: Aspergillus niger (ATCC 6275); experiment: Antifungal bioassay (MIC/MFC); details: ATCC6275, A.n. (A. niger)
Protocol: as §3

[9] = test system: Aspergillus versicolor (ATCC 11730); experiment: Antifungal bioassay (MIC/MFC); details: ATCC11730, A.v. (A. versicolor)
Protocol: as §3

P. ochrochloron = experiment: Antifungal bioassay (MIC/MFC); details: for MIC: P.o. (P. ochrochloron; text: P. ochramensis); for MFC: P.o. (P. ochrochloron)
Protocol: as §3

[10] = test system: Penicillium funiculosum (ATCC 36839); experiment: Antifungal bioassay (MIC/MFC); details: Talaromyces funiculosus, ATCC36839; P.f. (P. funiculosum)
Protocol: as §3

[11] = test system: Trichoderma viride (IAM 5061); experiment: Antifungal bioassay (MIC/MFC); details: T.v. (T. viride)
Protocol: as §3

[12] = test system: Penicillium verrucosum var. cyclopium (food isolate); experiment: Antifungal bioassay (MIC/MFC)
Protocol: For the antifungal bioassays, six fungi were used: Aspergillus niger (ATCC 6275), Aspergillus fumigatus (ATCC 1022), Aspergillus versicolor (ATCC 11730), Penicillium funiculosum (ATCC 36839), Trichoderma viride (IAM 5061), and Penicillium verrucosum var. cyclopium (food isolate). The organisms were obtained from the Mycological Laboratory, Department of Plant Physiology, Institute for Biological Research “Siniša Stankovic”, Belgrade, Serbia. All experiments were performed in duplicate.

[13] = Enterobacter cloacae, read-out: MIC
[14] = Listeria monocytogenes, NCTC7973
[15] = Listeria monocytogenes, NCTC7973, read-out: MIC
[16] = Salmonella enterica, read-out: MIC
[17] = Staphylococcus aureus, ATCC6538
[18] = Staphylococcus aureus, ATCC6538, read-out: MIC
[19] = Penicillium ochrochloron, read-out: MIC
[20] = Trichoderma viride, IAM5061, read-out: MIC

SMILES: COC(=O)c1[nH]c2ccccc2c1/C=C1\SC(=S)N(Cc2ccco2)C1=O [Compound 7, (Z)-methyl 3-((3-(furan-2-ylmethyl)-4-oxo-2-thioxothiazolidin-5-ylidene)methyl)-1H-indole-2-carboxylate]
- MBC [1]: 60 ± 6 µg/mL (≈ 151 µM)
- MIC [1]: 30 ± 10 µg/mL (≈ 75.3 µM)
- MBC ([2]; Enterobacter cloacae): 30 ± 10 µg/mL (≈ 75.3 µM)
- MIC [2, 13]: 15 ± 9 µg/mL (≈ 37.6 µM)
- MBC [3]: 60 ± 6 µg/mL (≈ 151 µM)
- MIC [3]: 30 ± 10 µg/mL (≈ 75.3 µM)
- MBC [4, 14]: 60 ± 6 µg/mL (≈ 151 µM)
- MIC [4, 15]: 30 ± 10 µg/mL (≈ 75.3 µM)
- MBC (M. flavus): 60 ± 6 µg/mL (≈ 151 µM)
- MIC (M. flavus): 45 ± 3 µg/mL (≈ 113 µM)
- MBC (P. aeruginosa): 60 ± 6 µg/mL (≈ 151 µM)
- MIC (P. aeruginosa): 30 ± 10 µg/mL (≈ 75.3 µM)
- MIC [5]: 15 ± 9 µg/mL (≈ 37.6 µM)
- MBC ([5]; Salmonella enterica): 30 ± 10 µg/mL (≈ 75.3 µM)
- MIC [5, 16]: 15 µg/mL (≈ 37.6 µM)
- MIC [6]: 15 ± 9 µg/mL (≈ 37.6 µM)
- MBC [6, 17]: 30 ± 10 µg/mL (≈ 75.3 µM)
- MIC [6, 18]: 15 µg/mL (≈ 37.6 µM)
- MFC (A. ochraceus): 15 ± 3 µg/mL (≈ 37.6 µM)
- MIC (A. ochraceus): 8 ± 0.6 µg/mL (≈ 20.1 µM)
- MFC [7]: 120 ± 40 µg/mL (≈ 301 µM)
- MIC [7]: 60 ± 6 µg/mL (≈ 151 µM)
- MFC [8]: 15 ± 3 µg/mL (≈ 37.6 µM)
- MIC [8]: 8 ± 0.6 µg/mL (≈ 20.1 µM)
- MFC [9]: 15 ± 3 µg/mL (≈ 37.6 µM)
- MIC [9]: 8 ± 0.6 µg/mL (≈ 20.1 µM)
- MIC (P. ochrochloron): 8 ± 0.6 µg/mL (≈ 20.1 µM)
- MFC (P. ochrochloron; Penicillium ochrochloron): 15 ± 3 µg/mL (≈ 37.6 µM)
- MIC (P. ochrochloron; [19]): 8 µg/mL (≈ 20.1 µM)
- MFC [10]: 30 ± 10 µg/mL (≈ 75.3 µM)
- MIC [10]: 15 ± 3 µg/mL (≈ 37.6 µM)
- MIC [11]: 4 ± 1 µg/mL (≈ 10 µM)
- MFC ([11]; Trichoderma viride, IAM5061): 8 ± 0.6 µg/mL (≈ 20.1 µM)
- MIC [11, 20]: 4 µg/mL (≈ 10 µM)
- MFC [12]: 30 ± 10 µg/mL (≈ 75.3 µM)
- MIC [12]: 15 ± 3 µg/mL (≈ 37.6 µM)

SMILES: COC(=O)c1[nH]c2ccc(F)cc2c1/C=C1\SC(=S)N(C(C(=O)O)C(C)C)C1=O (stereo not shown) [Compound 8, (Z)-2-(5-((5-fluoro-2-(methoxycarbonyl)-1H-indol-3-yl)methylene)-4-oxo-2-thioxothiazolidin-3-yl)-3-methylbutanoic acid]
- MBC [1]: 60 ± 6 µg/mL (≈ 137 µM)
- MIC [1]: 30 ± 10 µg/mL (≈ 68.7 µM)
- MIC [2]: 4 ± 5 µg/mL (≈ 9.16 µM)
- MBC ([2]; Enterobacter cloacae): 8 ± 0.6 µg/mL (≈ 18.3 µM)
- MIC [2, 13]: 4 µg/mL (≈ 9.16 µM)
- MBC [3]: 15 ± 9 µg/mL (≈ 34.4 µM)
- MIC [3]: 8 ± 1 µg/mL (≈ 18.3 µM)
- MIC [4]: 15 ± 1 µg/mL (≈ 34.4 µM)
- MBC [4, 14]: 30 ± 10 µg/mL (≈ 68.7 µM)
- MIC [4, 15]: 15 µg/mL (≈ 34.4 µM)
- MBC (M. flavus): 60 ± 6 µg/mL (≈ 137 µM)
- MIC (M. flavus): 30 ± 10 µg/mL (≈ 68.7 µM)
- MBC (P. aeruginosa): 8 ± 0.6 µg/mL (≈ 18.3 µM)
- MIC (P. aeruginosa): 4 ± 5 µg/mL (≈ 9.16 µM)
- MBC ([5]; Salmonella enterica): 15 ± 9 µg/mL (≈ 34.4 µM)
- MIC [5, 16]: 8 ± 9 µg/mL (≈ 18.3 µM)
- MBC [6, 17]: 60 ± 6 µg/mL (≈ 137 µM)
- MIC [6, 18]: 30 ± 10 µg/mL (≈ 68.7 µM)
- MFC (A. ochraceus): 15 ± 3 µg/mL (≈ 34.4 µM)
- MIC (A. ochraceus): 8 ± 0.6 µg/mL (≈ 18.3 µM)
- MFC [7]: 120 ± 40 µg/mL (≈ 275 µM)
- MIC [7]: 60 ± 6 µg/mL (≈ 137 µM)
- MFC [8]: 30 ± 10 µg/mL (≈ 68.7 µM)
- MIC [8]: 15 ± 3 µg/mL (≈ 34.4 µM)
- MFC [9]: 30 ± 10 µg/mL (≈ 68.7 µM)
- MIC [9]: 15 ± 3 µg/mL (≈ 34.4 µM)
- MFC (P. ochrochloron; Penicillium ochrochloron): 30 ± 10 µg/mL (≈ 68.7 µM)
- MIC (P. ochrochloron; [19]): 15 ± 3 µg/mL (≈ 34.4 µM)
- MFC [10]: 30 ± 10 µg/mL (≈ 68.7 µM)
- MIC [10]: 15 ± 3 µg/mL (≈ 34.4 µM)
- MFC [12]: 120 ± 40 µg/mL (≈ 275 µM)
- MIC [12]: 60 ± 6 µg/mL (≈ 137 µM)

SMILES: CC(=O)N1CCN(c2ccc(OCC3COC(Cn4ccnc4)(c4ccc(Cl)cc4Cl)O3)cc2)CC1 (stereo not shown) [Ketoconazole, reference compound]
- MFC (A. ochraceus): 500 ± 6 µg/mL (≈ 941 µM)
- MIC (A. ochraceus): 250 ± 50 µg/mL (≈ 470 µM)
- MFC [7]: 500 ± 1 µg/mL (≈ 941 µM)
- MIC [7]: 200 ± 10 µg/mL (≈ 376 µM)
- MFC [8]: 500 ± 4 µg/mL (≈ 941 µM)
- MIC [8]: 200 ± 10 µg/mL (≈ 376 µM)
- MFC [9]: 500 ± 2 µg/mL (≈ 941 µM)
- MIC [9]: 200 ± 10 µg/mL (≈ 376 µM)
- MFC (P. ochrochloron; Penicillium ochrochloron): 3500 ± 30 µg/mL (≈ 6590 µM)
- MIC (P. ochrochloron; [19]): 2500 ± 300 µg/mL (≈ 4700 µM)
- MFC [10]: 500 ± 3 µg/mL (≈ 941 µM)
- MIC [10]: 200 ± 10 µg/mL (≈ 376 µM)
- MFC ([11]; Trichoderma viride, IAM5061): 1500 ± 90 µg/mL (≈ 2820 µM)
- MIC [11, 20]: 1000 ± 100 µg/mL (≈ 1880 µM)
- MFC [12]: 300 ± 10 µg/mL (≈ 565 µM)
- MIC [12]: 200 ± 10 µg/mL (≈ 376 µM)

- MIC [1]: 1.5 ± 0.2 µg/mL (≈ 2.58 µM)
- MIC [2, 13]: 200 ± 5 µg/mL (≈ 344 µM)
- MIC [3]: 100 ± 50 µg/mL (≈ 172 µM)
- MIC [4, 15]: 150 ± 30 µg/mL (≈ 258 µM)
- MIC (M. flavus): 200 µg/mL (≈ 344 µM)
- MIC (P. aeruginosa): 100 ± 50 µg/mL (≈ 172 µM)
- MIC [5, 16]: 100 ± 50 µg/mL (≈ 172 µM)
- MIC [6, 18]: 100 µg/mL (≈ 172 µM)
SMILES: [H]/N=C(/N)N[C@H]1[C@H](O)[C@@H](O)[C@H](O[C@@H]2O[C@@H](C)[C@](O)(C=O)[C@H]2O[C@@H]2O[C@@H](CO)[C@H](O)[C@@H](O)[C@@H]2NC)[C@@H](N/C(N)=N\[H])[C@@H]1O [Streptomycin, reference compound]
- MBC [1]: 3 ± 0.5 µg/mL (≈ 5.16 µM)
- MBC ([2]; Enterobacter cloacae): 300 ± 30 µg/mL (≈ 516 µM)
- MBC [3]: 200 µg/mL (≈ 344 µM)
- MBC [4, 14]: 300 ± 30 µg/mL (≈ 516 µM)
- MBC (M. flavus): 300 ± 30 µg/mL (≈ 516 µM)
- MBC (P. aeruginosa): 200 µg/mL (≈ 344 µM)
- MBC ([5]; Salmonella enterica): 200 ± 9 µg/mL (≈ 344 µM)
- MBC [6, 17]: 200 µg/mL (≈ 344 µM)
